Series [1] addresses Acetylcholinesterase (Electrophorus electricus) (UniProt O42275). Kind of series: Reversible inhibition of electric eel AChE at 92 mM after 5 to 60 mins followed by addition of acetylthiocholine iodide by Ellman's method. (In general: DTNB colorimetry detects thiols as they appear.)
Series [2] is described as follows: Metal chelating activity assessed as Fe3+/compound complex formation incubated with electric eel AChE for 1 and 24 hrs measured over 60 mins by TLC analysis. It counts as physicochemical.
For series [3], the target named is Acetylcholinesterase (Electrophorus electricus) (UniProt O42275). Kind of series: Reversible inhibition of electric eel AChE incubated for 1 and 24 hrs by ESI-MS and TLC method.
Chain of Acetylcholinesterase (Electrophorus electricus) (O42275 24-633 limits assumed): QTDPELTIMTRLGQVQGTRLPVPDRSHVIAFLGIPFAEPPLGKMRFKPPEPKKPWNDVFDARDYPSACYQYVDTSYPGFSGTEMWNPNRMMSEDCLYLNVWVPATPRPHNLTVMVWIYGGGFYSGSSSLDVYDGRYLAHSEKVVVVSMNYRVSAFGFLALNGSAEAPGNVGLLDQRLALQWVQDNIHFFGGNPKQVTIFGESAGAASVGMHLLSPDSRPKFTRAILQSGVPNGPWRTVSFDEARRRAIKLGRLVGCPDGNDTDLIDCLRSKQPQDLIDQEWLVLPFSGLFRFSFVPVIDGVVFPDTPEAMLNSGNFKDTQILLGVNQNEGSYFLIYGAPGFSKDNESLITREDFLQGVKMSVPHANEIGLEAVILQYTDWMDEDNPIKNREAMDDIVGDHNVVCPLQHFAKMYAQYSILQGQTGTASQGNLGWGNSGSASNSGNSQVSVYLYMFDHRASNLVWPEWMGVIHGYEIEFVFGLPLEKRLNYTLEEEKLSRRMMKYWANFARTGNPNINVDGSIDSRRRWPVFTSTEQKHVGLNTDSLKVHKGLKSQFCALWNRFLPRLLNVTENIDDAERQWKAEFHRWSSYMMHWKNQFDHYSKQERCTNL
The next series addresses Acetylcholinesterase (Electrophorus electricus, UniProt O42275).
For series [4], the target named is Acetylcholinesterase (Electrophorus electricus) (UniProt O42275). Kind of series: Reversible inhibition of electric eel AChE at 554 mM after 5 to 60 mins followed by addition of acetylthiocholine iodide by Ellman's method.

Structures are written as SMILES. The source made the active and inactive calls. No cut-off for these calls is given here.

Chain of Acetylcholinesterase (O42275 whole entry): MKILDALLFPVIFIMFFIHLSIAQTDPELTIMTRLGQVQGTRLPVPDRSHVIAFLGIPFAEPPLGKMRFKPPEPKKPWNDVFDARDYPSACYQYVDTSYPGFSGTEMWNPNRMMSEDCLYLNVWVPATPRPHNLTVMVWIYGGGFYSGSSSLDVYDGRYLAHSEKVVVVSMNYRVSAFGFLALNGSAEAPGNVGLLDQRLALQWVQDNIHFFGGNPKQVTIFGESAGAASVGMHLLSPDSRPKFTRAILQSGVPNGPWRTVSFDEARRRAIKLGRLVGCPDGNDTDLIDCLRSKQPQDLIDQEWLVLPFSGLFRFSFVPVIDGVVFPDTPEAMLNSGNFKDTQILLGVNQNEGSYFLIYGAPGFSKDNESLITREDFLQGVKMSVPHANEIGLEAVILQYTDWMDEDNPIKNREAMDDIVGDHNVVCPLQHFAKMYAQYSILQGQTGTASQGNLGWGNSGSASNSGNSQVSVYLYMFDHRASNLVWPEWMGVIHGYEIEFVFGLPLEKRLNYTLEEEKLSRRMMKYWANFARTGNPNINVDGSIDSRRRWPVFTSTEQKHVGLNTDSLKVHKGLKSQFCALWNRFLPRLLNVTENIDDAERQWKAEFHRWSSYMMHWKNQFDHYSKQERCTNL

With `Cc1c(O)c(=O)ccn1-c1ccc(OC(=O)N(C)C)cc1`, the inhibition entry in series [1] and in series [3] was “Active” in each case. Moreover, the outcome in series [2] was Active. At Acetylcholinesterase, the IC50 stood at 348 µM.
On Acetylcholinesterase, `Cc1ccc(OC(=O)N(C)C)cc1` [P-TOLYL DIMETHYLCARBAMATE] came in with a 50% inhibitory concentration (IC50) of 1280 µM.
For `Cc1c(OCc2ccc(OC(=O)N(C)C)cc2)c(=O)ccn1-c1ccccc1`, the inhibition result in series [4] and in series [3] was “Active” each time. Inhibition on Acetylcholinesterase was half-maximal at 217 µM (IC50).

Broadly, the IC50 is the concentration needed to halve the response being measured.

(Values after ChEMBL document CHEMBL3779880, “In silico to in vitro screening of hydroxypyridinones as acetylcholinesterase inhibitors” (Bioorg Med Chem Lett, 2016).)
